Assays:
Format in all cases: biochemical
[1] = tested on: SHP-2-WT; experiment: SHP-2 phosphatase activity, DiFMUP substrate
[2] = tested on: SHP-2-R32A; experiment: SHP-2 phosphatase activity, DiFMUP substrate, R32A mutant; settings: 4-Ahx spacer peptide; Fig. 5c
Description: (§1) Catalytic activity of SHP-2 was monitored by a fluorescent assay using the substrate 6,8-difluoro-4-[…] (DiFMUP) as previously with slight modifications[38],[68]. Specifically, the phosphatase reactions were performed in 50 mM HEPES, pH 7.4, 100 mM NaCl and 10 mM DTT in 96-well black polystyrene plate, flat bottom, non-binding surface, using a final reaction volume of 100 µl. In all, 1.6 µg/ml of SHP-2-WT or mutant proteins were incubated with 20 µM DiFMUP with the indicated concentrations of phosphotyrosyl peptides or without peptide at 37 °C. For some experiments with highly SHP-2-activating peptides we used 0.5 µg/ml of SHP-2-WT so that activity measurements could fall within range. Fluorescence signal was monitored every 1 min for 3 min by a SpectraMax5 microplate reader and reaction rate was calculated by the change of fluorescence signal with time using excitation and emission wavelengths of 340 nm and 450 nm, respectively. Under these conditions, product formation was linear with respect to the time of incubation. Results were normalized against the basal activity determined for each condition in the absence of peptide and activity was calculated.

[3] = tested on: SHP-2-R138A; experiment: SHP-2 phosphatase activity, DiFMUP substrate, R138A mutant; settings: Fig. 5c
Description: as §1

fold lower phosphopeptide concentration for robust increase in SHP-2 activity than pITIM-pITSM ([1]; DiFMUP substrate, Fig. 5a): 1000 fold
potency in inducing SHP-2 activation compared with bpIRS ([1]; Supplementary Fig. 12, peptides at 20 nM): approximately three times more potent
SHP-2 activity caused by peptide [2]: abrogated
SHP-2 activity caused by peptide ([3]; 4-Ahx spacer peptide): abrogated
peptide concentration at which a small induction of SHP-2 activity was observed [3]: above 1 µM
Substance: TE(pY)ATIVFP-Ahx4-QTE(pY)ATIVFPS [bpITSM, bisphosphoryl ITSM-ITSM peptide with 4-Ahx spacer]

— article PMC7078208, “Interaction of SHP-2 SH2 domains with PD-1 ITSM induces PD-1 dimerization and SHP-2 activation” (Communications Biology, 2020)
